Source: patent US20260132128A1, “COMPOUND FOR RECOVERING P53 MUTATION FUNCTION AND USE THEREOF” (SHENZHEN ZHONGGE BIOLOGICAL TECHNOLOGY CO., LTD., priority 2022, published 2026)
Read-outs that look alike come from different tables or passages of the source. Marks after values point to notes of the source that are not given here.

Assays:
[1] = tested on: NUGC-3 cells; test: NUGC-3 cell proliferation assay (CTG); assay type: cell-based, human; conditions: for Compound GI50 (nM)/Reference compound GI50 (nM): multiple ratio of GI50 of the compound to the reference compound; for GI50: Homo sapiens, NUGC-3, 144 h, 6 days, CTG
Method in brief: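 NUGC-3 cells (250/well), plated overnight, were exposed 6 days at 37° C to compound, 10 doses of 1:3 dilutions from 10 μM top final. Viability by CellTiter-Glo luminescence; inhibition relative to 0.1% DMSO and blank, GI50 from variable-slope nonlinear fit.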

[2] = molecular target: T1, p53 Y220C (Homo sapiens, UniProt P04637, Y220C); test: DNA binding test (HTRF): binding of P53Y220C protein to DNA; assay type: biochemical; conditions: multiple ratio of EC50 of the compound to the reference compound, DNA binding test
T1 construct: a truncated mutant containing only amino acids 94-312 of p53; made in house; host or cells: E. coli

[3] = tested on: Caco-2 cells; test: Caco-2 cell permeability test; assay type: in vitro ADME; conditions: Caco-2, 10 μM, 120 min
Protocol: Caco-2 cells (ATCC, Cat. No. HTB-37) were inoculated to a 96-well plate (Corning HTS Transwell, Cat. No. 3391) at 1.25×10^5/cm2, and the culture medium (DMEM+10% FBS+1% Penicillin-Streptomycin Liquid (100×)+1% NEAA) was replaced every 3 to 4 days. The plate was placed in an incubator at 37° C. with 5% CO2 until a confluent cell monolayer was formed after 21 to 28 days. Before the transport experiment, the culture medium was removed from the cell culture plate, and the plate was washed twice with pre-warmed HBSS buffer (10 mM HEPES, pH 7.4), and 100 μL of HBSS buffer was added to each well. After incubation at 37° C. for 30 minutes, the TEER value was measured using a cell resistance meter (Millicell-ERS2) to confirm the integrity and density of the monolayer cells. The HBSS buffer was discarded, the upper plate containing the cell monolayer membrane was transferred to the corresponding receiving plate, 10 mM test compound stock solution was diluted to a concentration of 10 μM with HBSS transport buffer containing 0.5% BSA, and it was added to the apical side (A side) and basolateral side (B side), respectively. Incubation was carried out for 120 min at 37° C., 5% CO2, and 95% relative humidity, and the permeation of the test compound from A side to B side or from B side to A side and the efflux rate of the compound were determined. The test compound and the reference compound were quantified by LC-MS/MS analysis based on the peak area ratio of analyte/internal standard. The apparent permeability coefficient Papp (cm/s) was calculated using the following formula:
[formula] • wherein, dCr/dt represented the functional relation between cumulative concentration of compound in receptor compartment and time; V represented the volume of solution in receptor compartment (0.1 mL at apical side, and 0.25 mL at basolateral side); A represented the transport surface area, i.e., the monolayer cell area was 0.0804 cm^2; CO represented the initial concentration of compound in donor compartment.
The efflux ratio was calculated using the following formula: […]
The percent recovery was calculated using the following formula:
[formula] [formula] • wherein, Vd represented the volume of donor compartment (0.1 mL on the apical side and 0.25 mL on the basolateral side); C and Cr represented the final concentrations of the transported compound in the donor and receptor compartment, respectively; Cc represented the compound concentration in cell lysate; Vc represented the volume of insert well (which was 0.1 mL in this experiment).

[4] = Liver microsome stability test, mouse (MLM); assay type: in vitro ADME; conditions: mouse liver microsomes, NADPH; read-out: T1/2 (min) Mouse
Protocol: (§1) The 10 mM test compound/ketanserin (Energy Chemical, Cat. No. E020711) stock solution was diluted with acetonitrile to 0.5 mM compound/reference compound. The frozen 100 mM NADPH (MCE, Cat. No. HYF003/CS-4998) was diluted with phosphate buffer solution to a concentration of 6 mM; 20 mg/mL HLM (BioIVT, Cat. No. X008067) or MLM (BioIVT, Cat. No. M00501) was diluted with phosphate buffer solution to a concentration of 0.75 mg/ml, and added to a 96-round well plate, respectively, and shaken evenly on an oscillator at 600 rpm. The above oscillated samples were pipetted 3 times with an electric pipettor and dispensed into a new 96-well plate (containing NADPH group (n=2), NADPH-free group was added at 0 and 45 min (n=1)), and there were a total of 5 groups of 0, 5, 15, 30 and 45 min, respectively. After pre-incubation of the 5 groups of samples at 37° C. for 5 min, glacial acetonitrile was quickly added to the 0 min group for precipitation, and after rapid vortexing, K-Buffer or NADPH was added with an electric pipettor. The remaining groups were sequentially added with 6 mM NADPH to start the reaction in the order of 45, 30, 15 and 5 min samples, and K-Buffer solution was added to the NADPH-free group. After mixing at 1000 rpm in an oscillating mixer for 10 s, they were continuously incubated at 37° C. for the corresponding time. The reaction was terminated by quickly adding glacial acetonitrile internal standard using an electric pipettor; after vortexing at 900 rpm for 10 seconds, heat sealing was performed, oscillation was performed on an oscillator for 10 minutes, centrifugation was performed at 4000 rpm for 50 minutes, the supernatant was collected and diluted with pure water, and the test compound and the reference compound were quantified by LC-MS/MS analysis.

[5] = Liver microsome stability test, human (HLM); assay type: in vitro ADME; conditions: human liver microsomes, NADPH; read-out: T1/2 (min) Human
Protocol: as §1

[6] = molecular target: T2, CYP 3A4 (Homo sapiens, UniProt P08684); test: CYP 3A4 time-dependent inhibition test; assay type: in vitro ADME; conditions: midazolam substrate
T2 construct: purchased BioIVT X008067
T2 sequence (P08684 whole entry): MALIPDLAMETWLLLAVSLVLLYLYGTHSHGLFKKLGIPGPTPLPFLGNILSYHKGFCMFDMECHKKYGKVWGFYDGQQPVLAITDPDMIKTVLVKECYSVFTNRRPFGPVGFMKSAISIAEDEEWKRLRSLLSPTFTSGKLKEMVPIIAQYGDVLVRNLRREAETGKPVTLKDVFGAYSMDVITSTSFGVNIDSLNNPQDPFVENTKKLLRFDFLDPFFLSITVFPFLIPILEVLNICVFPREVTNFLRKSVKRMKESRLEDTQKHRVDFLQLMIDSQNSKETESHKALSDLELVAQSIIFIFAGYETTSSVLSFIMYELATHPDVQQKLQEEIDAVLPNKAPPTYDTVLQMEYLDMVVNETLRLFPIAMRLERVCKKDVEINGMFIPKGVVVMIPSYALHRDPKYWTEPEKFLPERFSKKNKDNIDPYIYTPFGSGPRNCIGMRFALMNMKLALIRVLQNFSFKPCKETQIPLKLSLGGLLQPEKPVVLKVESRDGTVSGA
Protocol: CYP 3A4 and the test compound or mifepristone of various concentrations were added to a 96-deep well plate for pre-incubation. The plate was placed in a water bath and preheated at 37° C. for 5 min. For the 0 min pre-incubation samples, midazolam substrate was added to the incubation plate, then 10 mM NADPH solution was added, and the reaction was carried out in a 37° C. water bath for 5 min; for the 30 min pre-incubation samples with NADPH, 10 mM NADPH solution was added to the incubation plate, pre-incubated in a 37° C. water bath for 30 min, and then midazolam substrate was added and reacted in a 37° C. water bath for 5 min; for the 30 min pre-incubation samples without NADPH, the incubation plate was pre-incubated in a 37° C. water bath for 30 min, then midazolam substrate was added, 10 mM NADPH solution was added, and the reaction was carried out in a 37° C. water bath for 5 min. After the reaction was completed, the quenching solution (500 nM tolbutamide (Bide Pharmaceuticals, Cat. No. BD154332) and 10 nM terfenadine (Sigma, Cat. No. T96532)) were added to quench the reaction, and the plate was centrifuged at 3,220 g for 40 min at 4° C. The supernatant was pipetted into a new plate, the supernatant was diluted with pure water and mixed well, and the sample was analyzed using UPLC-MS/MS.

[7] = molecular target: T3, p53 Y220C (Homo sapiens, UniProt P04637, P309S/R273H/Y220C); test: DNA binding test (HTRF): binding of P53Y220C protein to DNA; assay type: biochemical; conditions: HTRF, activation of p53 Y220C (aa 94-312) binding to biotin DNA
T3 construct: a truncated mutant containing only amino acids 94-312 of p53; made in house; host or cells: E. coli

[8] = tested on: BxPC-3 cells; test: BxPC-3 cell proliferation test (CTG); assay type: cell-based; conditions: Homo sapiens, 144 h, 6 days
Protocol: To detect the inhibitory effects of the aforementioned compounds on the proliferation ability of BxPC-3 cells, 125 BxPC-3 cells (ATCC®CRL-1687) were seeded into a 384-well plate (Corning 3765), 35 μL per well, and placed in a constant temperature incubator at 37° C. and 5% CO2 overnight. Then, 40 nL of the compound was added to the 384-well plate using an Echo 655 Liquid Handler, with a maximum final concentration of 10 μM, 1:3 serial dilution, and in a total of 10 doses. Incubation was performed at 37° C., 5% CO2 for 6 days. The plate was taken out from the incubator and equilibrated at room temperature for 10 minutes. 20 μL of CTG (Promage G7572) was added to each well of the plate according to the platemap. The plate was centrifuged at 1000 rpm for 1 minute. The lysis of cells was induced by mixing on a shaker for 2 minutes. The plate was centrifuged at 1000 rpm for 1 minute. Incubation was performed at room temperature for 10 minutes to stabilize luminescence signals. Luminescence values were recorded by Envision (PerkinElmer 2105-0020). GraphPad 9.0 was used to fit the inhibition rate and compound concentration into a nonlinear regression curve (dose response-variable slope) to calculate GI50, inhibition rate={1−(A−B)/(C−B)}*100%, A=signal value of compound; B=average signal of blank control; C=average signal of negative control (wherein the negative control was 0.1% DMSO).

[9] = Pharmacokinetic test in mice; assay type: in vivo; conditions: male, ICR, mouse, plasma
Protocol: ICR male mice (15 to 35 g, 5 to 10 weeks old, Shanghai Xipuer-Bikai Experimental Animal Co., Ltd.) were selected as test animals in this study. The LC-MS/MS method was used to quantitatively determine drug concentrations in the plasma of mice at different time points after intravenous injection or oral gavage administration of the test compound to evaluate the pharmacokinetic characteristics of the compound in mice. The clear solution of the test compound was injected into ICR mice via the tail vein (without fasting, solvent: 40% hydroxypropyl-β-cyclodextrin) and administered to ICR mice by oral gavage (fasting for 10 to 14 hours, free drinking water, solvent: 0.2% hydroxypropyl cellulose, 0.5% Tween 80). For intravenous administration, blood was collected from the submandibular venous plexus at 0.033, 0.083, 0.25, 0.5, 1, 2, 4, 8, and 24 hours after administration, placed in an anticoagulant tube with EDTA-K2 (Jiangsu Kangjian Medical Supplies Co., Ltd.), mixed, and centrifuged at 2-8° C., 6800 g for 6 minutes to obtain plasma; for oral gavage administration, blood was collected from the submandibular venous plexus at 0.083, 0.25, 0.5, 1, 2, 4, 6, 8, and 24 hours after administration, placed in an anticoagulant tube with EDTA-K2 (Jiangsu Kangjian Medical Supplies Co., Ltd.), mixed, and centrifuged at 2-8° C., 6800 g for 6 minutes to obtain plasma. The blood drug concentration was determined by LC-MS/MS, and the relevant pharmacokinetic parameters were calculated by the non-compartmental linear logarithmic trapezoidal method using Phoenix WinNonlin™ Version 7.0 (Pharsight, USA) pharmacokinetic software.

[10] = 0 min pre-incubation, read-out: IC50 (μM) 0 min
[11] = 30 min pre-incubation with NADPH, read-out: IC50 (μM) 30 min, with NADPH
[12] = 30 min pre-incubation without NADPH, read-out: IC50 (μM) 30 min, without NADPH

SMILES | Compound GI50 (nM)/Reference compound GI50 (nM) [1] | Compound EC50 (nM)/Reference compound EC50 (nM) [2] | Efflux Ratio [3] | Papp A to B ([3]; A to B) | Papp B to A ([3]; B to A) | half-life [4] | half-life [5] | IC50 [6, 10] | IC50 [6, 11] | IC50 [6, 12] | GI50 [1] | EC50 [7] | GI50 [8] | AUC ([9]; 25 mg/kg, po 25 mpk) | Cmax ([9]; 25 mg/kg, po 25 mpk) | clearance ([9]; 2.5 mg/kg, iv 2.5 mpk)
COc1cc(S(C)(=O)=O)ccc1NCC#Cc1nc2c(NC3CC[C@@H](N4CC5(COC5)C4)C[C@@H]3F)cccn2c1CC(F)(F)F (stereo partly drawn) [Compound 48] | B (B: GI50 of the reference compound < GI50 of the compound ≤ 3.0 * GI50 of the reference compound) | B (B: EC50 of the reference compound<EC50 of the compound≤3.0*EC50 of the reference compound) | 2.58 | 2.50 10^−6 cm/s | 6.43 10^−6 cm/s | – | – | – | – | – | – | – | – | – | – | –
CNC(=O)c1ccc(NCC#Cc2cc3c(N[C@@H]4CCN(C)C[C@@H]4F)cccc3n2CC(F)(F)F)c(OC)c1 [Reference compound, reference compound] | – | – | – | – | – | 17.1 min | 24.9 min | 3.24 µM | 0.58 µM | 2.55 µM | – | – | – | – | – | –
CNC(=O)c1ccc(NCC#Cc2cc3c(NC4CCC(N5CC6(COC6)C5)CC4F)cccn3c2CC(F)(F)F)c(OC)c1 (single isomer, unassigned) [Compound 65d] | B (B: GI50 of the reference compound < GI50 of the compound ≤ 3.0 * GI50 of the reference compound) | B (B: EC50 of the reference compound<EC50 of the compound≤3.0*EC50 of the reference compound) | – | – | – | 16.9 min | 65.3 min | – | – | – | < 1000 nM | < 100 nM | < 1000 nM | – | – | –
[2H]C([2H])([2H])NC(=O)c1ccc(NCC#Cc2nc3c(NC4CCC(N5CCOCC5)CC4F)cccn3c2CC(F)(F)F)c(OC([2H])([2H])[2H])c1 (single isomer, unassigned) [Compound 70d] | A (A: GI50 of the compound ≤ GI50 of the reference compound) | A (A: EC50 of the compound≤EC50 of the reference compound) | – | – | – | – | – | 5.95 µM | 1.91 µM | 6.65 µM | < 1000 nM | < 100 nM | – | 59700 ng·h/mL | 13100 ng/mL | 11 mL/min/kg
